From patent US20070111251A1, “Chemical address tags” (priority 2003, published 2007)

system: HeLa cells; assay: Kinetic imaging of NBD-triazine probe uptake and sequestration, fitted to nested two-compartment transport model; format: cell-based; details: median over optimal solutions within 5% of the best fit
Experimental: In living cells, image data was simultaneously acquired with an automated, high-content, kinetic screening instrument equipped with an environmental chamber (see, e.g., V. C. Abraham, D. L. Taylor and J. R. Haskins, Trends in Biotechnology 22, 15 (2004); herein incorporated by reference in its entirety), as cells were incubated with the fluorescent molecules and after removal of extracellular probe. Data was analyzed off line, using an image analysis algorithm to measure the statistical pixel intensity distribution associated with fluorescence probe sequestration in the perinuclear region (see, e.g., FIG. 21; see also, e.g., G. J. Ding et al., Journal of Biological Chemistry 273, 28897 (1998); herein incorporated by reference in its entirety). Data was parametrized with a nested, two-compartment, transport model (see, e.g., W. E. Evans, J. J. Schentag and W. J. Jusko., Applied Pharmacokinetics: Principles of Therapeutic Drug Monitoring (Lippincott Williams & Wilkins, Vancouver, W.A., 1992); herein incorporated by reference in its entirety), using a statistical link function to relate the kinetic coefficient of variation (CV) of pixel intensities in the images with the concentration of probe in vesicles and cytoplasm. Optimal kinetic parameters fitting the experimental data for each probe to the system described by the two-compartment model and statistical link function were determined using the simulated annealing technique (see, e.g., M. Pincus., Oper. Res. 18, 1225 (1979); herein incorporated by reference in its entirety). The present invention is not limited to a particular mechanism. Indeed, an understanding of the mechanism is not necessary to practice the present invention.
To assess how well the model accounts for all the different kinetic traces acquired, a “PVE” (proportion of variance explained) by the model was calculated. The PVE is one minus the ratio of the sum of squared differences between observed and fitted values to the sum of squared differences between observed values and their mean. PVE values close to one indicate good fit to the nested two-compartment model. The average PVE across the probes was 0.92, with >50% of the probes yielded PVE values […]. The present invention is not limited to a particular mechanism. Indeed, an understanding of the mechanism is not necessary to practice the present invention.
Cell culture. HeLa cells were grown in RPMI+10% FCS in a 5% CO2 atmosphere at 37° C. and plated in 96-well plates at a density of 3000 cells/well 24 hours prior to the start of the experiment.
Kinetic Imaging. For influx experiments, cells on 96-well plates were switched to imaging media consisting of RPMI containing 1.0 mM Bromophenol Blue—a soluble, cell-impermeant chromophore used to suppress excitation and emission of extracellular (background) dye fluorescence-, 10 μM probe and 0.1 μM Hoescht 33258 to label the cell nuclei. Plates were then transferred to a KineticScan instrument (Cellomics, Inc., Pittsburgh, Pa.), which contains an environmentally controlled CO2/temperature/humidity chamber, and data was acquired with a 20× objective lens. Images acquisition began approximately 10 min after dye addition, using the Hoescht channel to acquire nuclear images and FITC channel to acquire the NBD image. Plate-scanning mode was used for scanning, in which the instrument builds time-stacks of images by scanning the plate multiple times, returning to the same site of the plate at every scan. For efflux experiments, dye-containing media was removed from the wells of the plate. The wells were washed twice with fresh RPMI medium, imaging media was added, and image acquisition restarted 7 min after the dye-containing media was removed. The last time points of the influx experiment served as the first time point of the efflux experiment. Plates were scanned for approximately two hours in the influx experiment and six hours for the efflux experiment, with each well imaged on average every 7 minutes. […]

Compound | median Pap(cyto) (apparent partition coefficient between extracellular medium and cytosol) | median Pap(ves) (apparent partition coefficient between cytosol and intracellular vesicles, k(ves)in/k(ves)out)
O=[N+]([O-])c1ccc(NCCCCCCNc2nc(NCCc3ccccc3)nc(NCc3cccc(F)c3)n2)c2nonc12 [Compound E10] | 5.10 | 14.90
CCCCNc1nc(NCCCCCCNc2ccc([N+](=O)[O-])c3nonc23)nc(NCCc2ccc(OC)cc2)n1 [Compound D1] | 12.15 | 15.51
COc1cccc(CNc2nc(NCCCCCCNc3ccc([N+](=O)[O-])c4nonc34)nc(NC3CCCCC3)n2)c1 [Compound B7] | 12.22 | 11.80
COc1cccc(CNc2nc(NCCCCCCNc3ccc([N+](=O)[O-])c4nonc34)nc(NC3CCCCC3C)n2)c1 (centres unmarked) [Compound B5] | 9.10 | 9.25
O=[N+]([O-])c1ccc(NCCCCCCNc2nc(NCCc3ccccn3)nc(NCc3cccc(F)c3)n2)c2nonc12 [Compound E9] | 225.98 | 0.37
COc1ccc(CNc2nc(NCCCCCCNc3ccc([N+](=O)[O-])c4nonc34)nc(NC3CCC(C)CC3)n2)cc1 (centres unmarked) [Compound C4] | 22.58 | 9.87
COc1ccc(CCNc2nc(NCCCCCCNc3ccc([N+](=O)[O-])c4nonc34)nc(NC3CCCCC3)n2)cc1 [Compound D7] | 8.37 | 28.56
COc1cccc(CNc2nc(NCCCCCCNc3ccc([N+](=O)[O-])c4nonc34)nc(NC(C)C)n2)c1 [Compound B2] | 11.59 | 10.82
COc1ccc(CCNc2nc(NCCCCCCNc3ccc([N+](=O)[O-])c4nonc34)nc(NCCc3ccccc3)n2)cc1 [Compound D10] | 9.41 | 13.79
COc1ccc(CCNc2nc(NCCCCCCNc3ccc([N+](=O)[O-])c4nonc34)nc(NC3CCCCC3C)n2)cc1 (centres unmarked) [Compound D5] | 9.15 | 13.58
O=[N+]([O-])c1ccc(NCCCCCCNc2nc(NCc3cccc(F)c3)nc(NC3CCCCC3)n2)c2nonc12 [Compound E7] | 8.70 | 16.57
CC(C)CCNc1nc(NCCCCCCNc2ccc([N+](=O)[O-])c3nonc23)nc(NCc2cccc(F)c2)n1 [Compound E8] | 12.09 | 11.21
COc1ccc(CNc2nc(NCCCCCCNc3ccc([N+](=O)[O-])c4nonc34)nc(NC(C)C)n2)cc1 [Compound C2] | 239.41 | 1.03
CC(C)Nc1nc(NCCCCCCNc2ccc([N+](=O)[O-])c3nonc23)nc(NCc2ccccc2)n1 [Compound A2] | 13.18 | 13.98
CCCCNc1nc(NCCCCCCNc2ccc([N+](=O)[O-])c3nonc23)nc(NCc2ccc(OC)cc2)n1 [Compound C1] | 10.25 | 22.06
CCCCCCCCNc1nc(NCCCCCCNc2ccc([N+](=O)[O-])c3nonc23)nc(NCc2ccc(OC)cc2)n1 [Compound C3] | 5.74 | 26.52
COc1cccc(CNc2nc(NCCCCCCNc3ccc([N+](=O)[O-])c4nonc34)nc(NC3CCC(C)CC3)n2)c1 (centres unmarked) [Compound B4] | 18.09 | 12.15
COc1ccc(CCNc2nc(NCCCCCCNc3ccc([N+](=O)[O-])c4nonc34)nc(NC(C)C)n2)cc1 [Compound D2] | 149.28 | 1.53
CC(C)Nc1nc(NCCCCCCNc2ccc([N+](=O)[O-])c3nonc23)nc(NCc2cccc(F)c2)n1 [Compound E2] | 49.62 | 8.43
CC1CCCCC1Nc1nc(NCCCCCCNc2ccc([N+](=O)[O-])c3nonc23)nc(NCc2ccccc2)n1 (centres unmarked) [Compound A5] | 19.23 | 12.11
CC1CCC(Nc2nc(NCCCCCCNc3ccc([N+](=O)[O-])c4nonc34)nc(NCc3ccccc3)n2)CC1 (centres unmarked) [Compound A4] | 7.72 | 29.83

Other lines, results leading:

median Pap(cyto) (apparent partition coefficient between extracellular medium and cytosol) | median Pap(ves) (apparent partition coefficient between cytosol and intracellular vesicles, k(ves)in/k(ves)out) | Compound
6.71 | 21.53 | CC1CCCCC1Nc1nc(NCCCCCCNc2ccc([N+](=O)[O-])c3nonc23)nc(NCCC(c2ccccc2)c2ccccc2)n1 (centres unmarked) [Compound F5]
3.33 | 8.01 | O=[N+]([O-])c1ccc(NCCCCCCNc2nc(NCCC(c3ccccc3)c3ccccc3)nc(NC3CCCCC3)n2)c2nonc12 [Compound F7]
6.63 | 29.18 | Cc1ccc(CNc2nc(NCCCCCCNc3ccc([N+](=O)[O-])c4nonc34)nc(NC3CCCCC3)n2)cc1 [Compound G7]
8.77 | 22.55 | COc1cccc(CNc2nc(NCCCCCCNc3ccc([N+](=O)[O-])c4nonc34)nc(NCC3CCCCC3)n2)c1OC [Compound H6]
65.86 | 10.07 | CC(C)CCNc1nc(NCCCCCCNc2ccc([N+](=O)[O-])c3nonc23)nc(NCCC(c2ccccc2)c2ccccc2)n1 [Compound F8]
8.29 | 24.73 | Cc1ccc(CNc2nc(NCCCCCCNc3ccc([N+](=O)[O-])c4nonc34)nc(NCCC(C)C)n2)cc1 [Compound G8]
161.46 | 0.42 | CCCCNc1nc(NCCCCCCNc2ccc([N+](=O)[O-])c3nonc23)nc(NCc2cccc(OC)c2OC)n1 [Compound H1]
